pIC50: −log10 of the molar value.
Tested on: 379773-124-R-J2-PDC spheroid viability
Test: Anticancer human tumor 379773-124-R-J2-PDC patient-derived endometrial carcinoma cell line growth inhibition [POLQ]
Conditions: spheroids with HUVEC and MSC; for pIC50: curve of first compound; for viability, T/C: stronger effect = lower value
Summary of the method: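 Complex spheroid viability model combining PDC tumour cells with endothelial (HUVEC) and MSC stromal cells. Novobiocin, ART-558 or RP6685 were tested singly and in combination with standard and investigational anticancer drugs. Each was titrated in half-log steps from near clinical Cmax, or from 10 microM where Cmax was unknown.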

[1] = second compound 0.0316 µM, first compound 0.00316 µM
[2] = second compound 0.0316 µM, first compound 0.01 µM
[3] = second compound 0.0316 µM, first compound 0.0316 µM
[4] = second compound 0.0316 µM, first compound 0.1 µM
[5] = second compound 0.1 µM, first compound 0.00316 µM
[6] = second compound 0.1 µM, first compound 0.01 µM
[7] = second compound 0.1 µM, first compound 0.0316 µM
[8] = second compound 0.1 µM, first compound 0.1 µM
[9] = second compound 0.316 µM, first compound 0.00316 µM
[10] = second compound 0.316 µM, first compound 0.01 µM
[11] = second compound 0.316 µM, first compound 0.0316 µM
[12] = second compound 0.316 µM, first compound 0.1 µM
[13] = second compound 1 µM, first compound 0.00316 µM
[14] = second compound 1 µM, first compound 0.01 µM
[15] = second compound 1 µM, first compound 0.0316 µM
[16] = second compound 1 µM, first compound 0.1 µM
[17] = second compound 3.16 µM, first compound 0.00316 µM
[18] = second compound 3.16 µM, first compound 0.01 µM
[19] = second compound 3.16 µM, first compound 0.0316 µM
[20] = second compound 3.16 µM, first compound 0.1 µM
[21] = second compound 10 µM, first compound 0.00316 µM
[22] = second compound 10 µM, first compound 0.01 µM
[23] = second compound 10 µM, first compound 0.0316 µM
[24] = second compound 10 µM, first compound 0.1 µM
[25] = second compound 0.0316 µM, first compound 0.316 µM
[26] = second compound 0.0316 µM, first compound 1 µM
[27] = second compound 0.1 µM, first compound 0.316 µM
[28] = second compound 0.1 µM, first compound 1 µM
[29] = second compound 0.316 µM, first compound 0.316 µM
[30] = second compound 0.316 µM, first compound 1 µM
[31] = second compound 1 µM, first compound 0.316 µM
[32] = second compound 1 µM, first compound 1 µM
[33] = second compound 3.16 µM, first compound 0.316 µM
[34] = second compound 3.16 µM, first compound 1 µM
[35] = second compound 10 µM, first compound 0.316 µM
[36] = second compound 10 µM, first compound 1 µM
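Note: spheroids exposed to drugs for seven days before readout.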
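Throughout, for viability, T/C: percent viability relative to DMSO vehicle control taken as 100%.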

Cn1ncnc1[C@H]1c2n[nH]c(=O)c3cc(F)cc(c23)N[C@@H]1c1ccc(F)cc1 + Nc1ccc(C#CCN(C(=O)Cc2ncc(C(F)(F)F)cc2C(F)(F)F)c2ccc(F)cc2)nn1
pIC50 (second compound 0.0316 µM): < 7.00
pIC50 (second compound 0.1 µM): < 7.00
pIC50 (second compound 0.316 µM): < 7.00
pIC50 (second compound 1 µM): < 7.00
pIC50 (second compound 3.16 µM): < 7.00
pIC50 (second compound 10 µM): < 7.00
viability, T/C (second compound 0.0316 µM, first compound 0.000316 µM): 103%
viability, T/C (second compound 0.0316 µM, first compound 0.001 µM): 86.2%
viability, T/C [1]: 94%
viability, T/C [2]: 85.8%
viability, T/C [3]: 68.6%
viability, T/C [4]: 53.7%
viability, T/C (second compound 0.1 µM, first compound 0.000316 µM): 89.8%
viability, T/C (second compound 0.1 µM, first compound 0.001 µM): 94.6%
viability, T/C [5]: 99.3%
viability, T/C [6]: 91.9%
viability, T/C [7]: 79.1%
viability, T/C [8]: 55.8%
viability, T/C (second compound 0.316 µM, first compound 0.000316 µM): 100%
viability, T/C (second compound 0.316 µM, first compound 0.001 µM): 102%
viability, T/C [9]: 93.6%
viability, T/C [10]: 86.3%
viability, T/C [11]: 72.5%
viability, T/C [12]: 64.2%
viability, T/C (second compound 1 µM, first compound 0.000316 µM): 97.7%
viability, T/C (second compound 1 µM, first compound 0.001 µM): 90.1%
viability, T/C [13]: 99.1%
viability, T/C [14]: 86.6%
viability, T/C [15]: 80.4%
viability, T/C [16]: 55.1%
viability, T/C (second compound 3.16 µM, first compound 0.000316 µM): 113%
viability, T/C (second compound 3.16 µM, first compound 0.001 µM): 91.5%
viability, T/C [17]: 98%
viability, T/C [18]: 102%
viability, T/C [19]: 67.5%
viability, T/C [20]: 58.2%
viability, T/C (second compound 10 µM, first compound 0.000316 µM): 87.7%
viability, T/C (second compound 10 µM, first compound 0.001 µM): 90.6%
viability, T/C [21]: 86.3%
viability, T/C [22]: 84%
viability, T/C [23]: 78.8%
viability, T/C [24]: 56.5%

COc1cccc(OCCCN)c1-c1cc(Nc2cnc(C#N)cn2)n[nH]1 + COC1C(OC(N)=O)C(O)C(Oc2ccc3c(O)c(NC(=O)c4ccc(O)c(CC=C(C)C)c4)c(=O)oc3c2C)OC1(C)C
pIC50 (second compound 0.0316 µM): 8.35
pIC50 (second compound 0.1 µM): 8.45
pIC50 (second compound 0.316 µM): 8.46
pIC50 (second compound 1 µM): 8.35
pIC50 (second compound 3.16 µM): 8.42
pIC50 (second compound 10 µM): 8.42
viability, T/C [1]: 69.1%
viability, T/C [2]: 3.94%
viability, T/C [3]: 2.78%
viability, T/C [4]: 2%
viability, T/C [25]: 1.77%
viability, T/C [26]: 1.34%
viability, T/C [5]: 54.7%
viability, T/C [6]: 5.02%
viability, T/C [7]: 2.47%
viability, T/C [8]: 1.87%
viability, T/C [27]: 2.26%
viability, T/C [28]: 1.32%
viability, T/C [9]: 54.3%
viability, T/C [10]: 4.98%
viability, T/C [11]: 2.58%
viability, T/C [12]: 1.9%
viability, T/C [29]: 1.7%
viability, T/C [30]: 0.97%
viability, T/C [13]: 69.2%
viability, T/C [14]: 5.09%
viability, T/C [15]: 1.91%
viability, T/C [16]: 2%
viability, T/C [31]: 1.74%
viability, T/C [32]: 1.47%
viability, T/C [17]: 57.9%
viability, T/C [18]: 5.31%
viability, T/C [19]: 2.5%
viability, T/C [20]: 2.18%
viability, T/C [33]: 1.81%
viability, T/C [34]: 1.54%
viability, T/C [21]: 58.8%
viability, T/C [22]: 4.41%
viability, T/C [23]: 2.84%
viability, T/C [24]: 2.3%
viability, T/C [35]: 3.07%
viability, T/C [36]: 1.39%

O=C(Nc1ccc(O)c(NS(=O)(=O)c2ccc(F)cc2)c1)c1ccc(-c2ccccc2)cc1 + Cc1cccc(N(C)C(=O)C2C(O)CCN2c2nc(C)cc(C(F)(F)F)c2C#N)c1
pIC50 (second compound 0.0316 µM): < 5.00
pIC50 (second compound 0.1 µM): < 5.00
pIC50 (second compound 0.316 µM): < 5.00
pIC50 (second compound 1 µM): < 5.00
pIC50 (second compound 3.16 µM): < 5.00
pIC50 (second compound 10 µM): < 5.00
viability, T/C [3]: 94.5%
viability, T/C [4]: 109%
viability, T/C [25]: 85.7%
viability, T/C [26]: 102%
viability, T/C (second compound 0.0316 µM, first compound 3.16 µM): 88.9%
viability, T/C (second compound 0.0316 µM, first compound 10 µM): 75.3%
viability, T/C [7]: 88.8%
viability, T/C [8]: 91.8%
viability, T/C [27]: 87.2%
viability, T/C [28]: 92.4%
viability, T/C (second compound 0.1 µM, first compound 3.16 µM): 86.4%
viability, T/C (second compound 0.1 µM, first compound 10 µM): 85.8%
viability, T/C [11]: 96.7%
viability, T/C [12]: 104%
viability, T/C [29]: 104%
viability, T/C [30]: 99.6%
viability, T/C (second compound 0.316 µM, first compound 3.16 µM): 92.8%
viability, T/C (second compound 0.316 µM, first compound 10 µM): 87%
viability, T/C [15]: 102%
viability, T/C [16]: 86.2%
viability, T/C [31]: 90.9%
viability, T/C [32]: 90.2%
viability, T/C (second compound 1 µM, first compound 3.16 µM): 94.5%
viability, T/C (second compound 1 µM, first compound 10 µM): 75.5%
viability, T/C [19]: 98.3%
viability, T/C [20]: 90.3%
viability, T/C [33]: 85.4%
viability, T/C [34]: 92.5%
viability, T/C (second compound 3.16 µM, first compound 3.16 µM): 85.4%
viability, T/C (second compound 3.16 µM, first compound 10 µM): 71%
viability, T/C [23]: 84%
viability, T/C [24]: 93.1%
viability, T/C [35]: 80.4%
viability, T/C [36]: 94%
viability, T/C (second compound 10 µM, first compound 3.16 µM): 80.5%
viability, T/C (second compound 10 µM, first compound 10 µM): 62.3%

Source: PubChem BioAssay AID1963848 (Molecular Pharmacology Branch, DTP, NCI, 2024)
